Columns and labels:
[1] = target: PKM2 WT (Homo sapiens, UniProt P14618); test: PKM2 Assay, LDH-coupled, absorbance 340 nm; assay type: biochemical; settings: wild type PKM2 enzyme activation
Experimental: (§1) PKM2 enzyme stock solution was diluted to prepare a 1.25× Reaction Mix (without ADP). 1 μL of test compound was first added to the wells followed by 40 μL of 1.25× Reaction Mix (without ADP) and incubated at room temperature (25° C.) for 60 min. The reaction was initiated with 10 μL ADP (0.4 mM final concentration), bringing the final Reaction Mix to 1x, and the reaction progress was measured as changes in absorbance at 340 nm wavelength at room temperature.
(§2) Test compound preparation: Test compounds were prepared at 50× final concentration in DMSO. 1 to 3 dilutions were made for 11 points (for example 50 μL of 5000 μM compound was added to 100 μL 100% DMSO to yield a 1667 μM, 50 μL of this added to 100 μL DMSO to yield 556 μM, and so forth). The compounds were added to the assay as a 1 to 50 dilution (1 μL in 50 μL) to yield a top concentration of 100 μM, decreasing 3-fold for 11 points.
Reaction Mix: PKM2 (5 ng/well, 0.1 μg/ml), ADP (0.4 mM), PEP (0.11 mM), NADH (180 μM), LDH (0.005 U/μL, Sigma #L3888), 1 mM DTT, 0.03% BSA in 1×
(§3) Reaction Buffer: 100 mM KCl, 50 mM Tris pH 7.5, 5 mM MgCl2.

[2] = target: PKR K410E (Homo sapiens, UniProt P30613, K410E); test: PKR Mutant Assay (K410E), LDH-coupled, absorbance 340 nm; assay type: biochemical; settings: mutant PKR K410E enzyme activation
Experimental: as §1, with “PKR (WT or mutant)” for “PKM2”, “ADP,” for “ADP (0.4 mM final concentration),”
as §2
(§4) Reaction Mix: PKR (1.25-1000 ng/well, 0.025-20 μg/ml depending on the PKR mutant), ADP (0.05-2.3 mM depending on the PKR mutant), PEP (0.031-2 mM depending on the PKR mutant), NADH (180 μM), LDH (0.005 U/μL, Sigma #L3888), 1 mM DTT, 0.03% BSA in 1× Reaction Buffer
as §3

[3] = target: PK R510Q (Homo sapiens, UniProt P30613, R510Q); test: PKR Mutant Assay (R510Q), LDH-coupled, absorbance 340 nm; assay type: biochemical; settings: mutant PKR R510Q enzyme activation
Experimental: as §1, with “PKR (WT or mutant)” for “PKM2”, “ADP,” for “ADP (0.4 mM final concentration),”
as §2, §4, §3

[4] = target: PKR WT (Homo sapiens, UniProt P30613); test: PKR enzyme assay (WT), LDH-coupled, absorbance 340 nm; assay type: biochemical; settings: wild type PKR enzyme activation
Experimental: as §1, with “PKR (WT or mutant)” for “PKM2”, “ADP,” for “ADP (0.4 mM final concentration),”
as §2, §4, §3

[5] = test system: RBCs; test: Cell Based ATP Assay in purified red blood cells (Cell-Titer-Glo); parameters: species or system human; settings: wild type PKR, ATP levels in RBCs, overnight at 37° C.; for AC50: Homo sapiens, Erythrocyte
Experimental: Fresh blood drawn from healthy volunteers into K2EDTA tubes was collected. Whole blood was pelleted by spinning at 500 g for 10 minutes. The transfusion bag port was cut off Purecell leukocyte reduction neofilter (Fisher NC0267633) one (1) inch above filter. A 10 ml syringe barrel was attached to the remaining cut tubing attached to the neofilter. The plasma layer was removed from the pellet of the whole blood and the pellet was resuspended in 2× volume of phosphate buffered saline (PBS). 9 ml re-suspended blood cell pellet was transferred to a 10 ml syringe that was attached to the neofilter. The whole blood was allowed to gravity flow through filter until all fluid ran through upper tubing into a filter disc. The plunger was added to the syringe. The filter was inverted and air was plunged through the syringe filter system. A new 5 ml syringe was used to remove filtered RBCs from the bag by the syringe port. Purified RBCs were transferred to a 5 ml snap cap tube that had been incubated on ice. The 5 ml snap cap tube was spun at 500 g for 10 minutes at 15 C. Supernatant was aspirated and resuspended in AGAM (1×PBS, 1% glucose, 170 mg/L adenine, 5.25 g/L mannitol) at a density of 4×10^9 cells/mL.
For cell based ATP assays, the compound as described herein was prepared in 100% DMSO as a 10 mM stock. Serial dilutions (1:4) were performed in 96-well V-bottom storage plate and then added 1:100 to 96-well V-bottom plates containing AGAM. 10 μL/well of compound diluted in AGAM was added to black clear bottom assay plates. RBCs were diluted in AGAM media to a density of 1×10^7 cells/mL before added 90 μL/well to black clear bottom assay plates (final compound concentration at 0.1% DMSO concentration). Assay plates were sealed using aluminum foil seals and incubated overnight at 37° C. in a humidified chamber. ATP levels were read out using Cell-Titer-Glo (Promega).

PKR K410E, sequence (P30613 whole entry K410E): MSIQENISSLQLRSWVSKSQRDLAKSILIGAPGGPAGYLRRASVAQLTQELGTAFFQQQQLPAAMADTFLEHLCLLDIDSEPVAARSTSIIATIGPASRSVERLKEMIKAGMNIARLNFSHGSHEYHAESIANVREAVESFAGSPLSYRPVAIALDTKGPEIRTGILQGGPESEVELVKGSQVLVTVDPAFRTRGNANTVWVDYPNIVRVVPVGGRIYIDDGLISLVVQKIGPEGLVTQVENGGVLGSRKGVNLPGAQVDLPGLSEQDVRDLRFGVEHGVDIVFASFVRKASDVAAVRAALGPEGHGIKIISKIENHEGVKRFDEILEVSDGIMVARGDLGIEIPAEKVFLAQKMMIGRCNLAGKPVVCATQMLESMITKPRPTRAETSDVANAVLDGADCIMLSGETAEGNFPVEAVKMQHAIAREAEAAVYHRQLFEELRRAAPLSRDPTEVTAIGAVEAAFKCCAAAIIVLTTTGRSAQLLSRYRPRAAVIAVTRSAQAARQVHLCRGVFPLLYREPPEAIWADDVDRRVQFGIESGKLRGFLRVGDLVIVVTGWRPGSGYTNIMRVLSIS
PKR WT, sequence (P30613 whole entry): as the sequence (P30613 whole entry K410E) above, with E410K counted along it
PK R510Q, sequence (P30613 whole entry R510Q): as the sequence (P30613 whole entry K410E) above, with E410K, R510Q counted along it
PKM2 WT, sequence (P14618 whole entry): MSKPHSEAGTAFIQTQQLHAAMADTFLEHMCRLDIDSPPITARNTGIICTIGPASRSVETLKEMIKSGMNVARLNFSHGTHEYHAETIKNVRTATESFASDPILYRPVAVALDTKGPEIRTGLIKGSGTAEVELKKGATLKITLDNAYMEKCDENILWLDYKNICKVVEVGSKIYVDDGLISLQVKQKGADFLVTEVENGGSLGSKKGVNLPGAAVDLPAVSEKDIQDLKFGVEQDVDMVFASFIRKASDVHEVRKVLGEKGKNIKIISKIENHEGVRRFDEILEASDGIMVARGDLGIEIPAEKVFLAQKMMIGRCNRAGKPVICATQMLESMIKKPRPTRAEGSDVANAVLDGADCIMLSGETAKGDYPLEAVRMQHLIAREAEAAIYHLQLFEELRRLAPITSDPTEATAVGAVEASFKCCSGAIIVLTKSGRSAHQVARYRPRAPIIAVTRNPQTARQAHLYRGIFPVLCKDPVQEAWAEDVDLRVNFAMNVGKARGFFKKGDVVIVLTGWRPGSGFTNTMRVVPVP

Question: For `COc1cccc(CN2Cc3c(n(C)c4cc(C)sc34)C2=O)c1` [Cpd 1], which AC50 [1] is on record?
Answer: The AC50 was over 800 nM.

Question: What about the AC50 [2] of the same molecule?
Answer: The AC50 was over 800 nM.

Question: And the AC50 [3]?
Answer: Its AC50 is over 800 nM.

Question: And the AC50 [4]?
Answer: Its AC50 is over 800 nM.

Question: For `Cc1cccc(Cn2ncc3c4sc(Cc5ncco5)cc4n(C)c3c2=O)c1` [Cpd 5], which AC50 [5] is on record?
Answer: Its AC50 is at most 1000 nM.

Question: What about the AC50 [2] of the same molecule?
Answer: Its AC50 is under 300 nM.

Question: And the AC50 [3]?
Answer: The AC50 was under 300 nM.

Question: What about the AC50 [4] of the same molecule?
Answer: The AC50 was under 300 nM.

Question: Which results are given for `Cn1c2cc(Cc3cccc4cn[nH]c34)sc2c2cnn(Cc3cscn3)c(=O)c21` [Cpd 6]?
Answer: AC50 [5]: ≤ 1000 nM; AC50 [2]: < 300 nM; AC50 [3]: < 300 nM; AC50 [4]: < 300 nM

Question: Which AC50 [5] does the source give for `Cn1c2cc(Cc3cscn3)sc2c2cnn(Cc3ccccn3)c(=O)c21` [Cpd 7] here?
Answer: The AC50 was at most 1000 nM.

Question: What about the AC50 [2] of the same molecule?
Answer: The AC50 was under 300 nM.

Question: And the AC50 [3]?
Answer: Its AC50 is under 300 nM.

Question: And the AC50 [4]?
Answer: The AC50 was under 300 nM.

Question: How did the AC50 [5] turn out when `Cn1c2cc(Cc3cn[nH]c3)sc2c2cnn(Cc3cccc4[nH]ncc34)c(=O)c21` [Cpd 8] was run?
Answer: The AC50 was at most 1000 nM.

Question: What about the “PKR K410E AC50” value [2] of the same molecule?
Answer: The value was “No Fit”.

Question: What about the AC50 [3] of the same molecule?
Answer: The AC50 was under 300 nM.

Question: And the AC50 [4]?
Answer: The AC50 was under 300 nM.

Question: For `COc1cccc(Cn2ncc3c(c(C)n4cc(C)sc34)c2=O)c1` [Cpd 9], which AC50 [5] is on record?
Answer: The AC50 was over 1000 nM.

Question: What about the AC50 [2] of the same molecule?
Answer: The AC50 was under 300 nM.

Question: And the AC50 [3]?
Answer: Its AC50 is under 300 nM.

Question: What about the AC50 [4] of the same molecule?
Answer: The AC50 was under 300 nM.

Question: For `COc1cccc(Cn2ncc3c(c(C(F)(F)F)n4cc(C)sc34)c2=O)c1` [Cpd 10], which “Cell based ATP assay AC50” value [5] is on record?
Answer: Its value is “No Fit”.

Question: And the “PKR K410E AC50” value [2]?
Answer: The value was “No Fit”.

Question: And the “PK R510Q AC50” value [3]?
Answer: Its value is “No Fit”.

Question: What about the AC50 [4] of the same molecule?
Answer: Its AC50 is under 300 nM.

Question: For `COc1cccc(Cn2ncc3c(c(C#N)n4cc(C)sc34)c2=O)c1` [Cpd 11], which “Cell based ATP assay AC50” value [5] is on record?
Answer: The value was “No Fit”.

Question: What about the AC50 [2] of the same molecule?
Answer: The AC50 was under 300 nM.

Question: And the AC50 [3]?
Answer: The AC50 was under 300 nM.

Question: And the AC50 [4]?
Answer: Its AC50 is under 300 nM.

Question: How did the AC50 [5] turn out when `COc1cccc(Cn2ncc3c(c(C(N)=O)n4cc(C)sc34)c2=O)c1` [Cpd 12] was run?
Answer: Its AC50 is over 1000 nM.

Question: And the AC50 [2]?
Answer: The AC50 was under 300 nM.

Question: And the AC50 [3]?
Answer: Its AC50 is under 300 nM.

Question: What about the AC50 [4] of the same molecule?
Answer: Its AC50 is under 300 nM.

Question: Which “Cell based ATP assay AC50” value [5] does the source give for `COc1cccc(Cn2ncc3c(c(C#CCO)n4cc(C)sc34)c2=O)c1` [Cpd 13] here?
Answer: The value was “No Fit”.

Question: And the AC50 [2]?
Answer: Its AC50 is 301 to 800 nM.

Question: And the AC50 [3]?
Answer: Its AC50 is 301 to 800 nM.

Question: And the AC50 [4]?
Answer: The AC50 was 301 to 800 nM.

Question: Which AC50 [5] does the source give for `Cc1c2c(=O)n(Cc3ccn(C)n3)ncc2c2sc(CO)cn12` [Cpd 14] here?
Answer: Its AC50 is at most 1000 nM.

Question: What about the AC50 [2] of the same molecule?
Answer: The AC50 was under 300 nM.

Question: And the AC50 [3]?
Answer: Its AC50 is under 300 nM.

Question: What about the AC50 [4] of the same molecule?
Answer: Its AC50 is under 300 nM.

Question: How did the AC50 [5] turn out when `Cc1c2c(=O)n(Cc3ccn(C)n3)ncc2c2sc(Cc3cc[nH]n3)cn12` [Cpd 15] was run?
Answer: The AC50 was at most 1000 nM.

Question: And the AC50 [2]?
Answer: Its AC50 is under 300 nM.

Question: And the AC50 [3]?
Answer: The AC50 was under 300 nM.

Question: What about the AC50 [4] of the same molecule?
Answer: The AC50 was under 300 nM.

Question: How did the AC50 [5] turn out when `Cc1c2c(=O)n(Cc3ccccn3)ncc2c2sc(Cc3cscn3)cn12` [Cpd 16] was run?
Answer: The AC50 was at most 1000 nM.

Question: What about the AC50 [2] of the same molecule?
Answer: Its AC50 is under 300 nM.

Question: And the AC50 [3]?
Answer: The AC50 was under 300 nM.

Question: What about the AC50 [4] of the same molecule?
Answer: The AC50 was under 300 nM.

Question: How did the AC50 [5] turn out when `Cc1c2c(=O)n(Cc3cccc(N)n3)ncc2c2sc(Cc3cc[nH]n3)cn12` [Cpd 17] was run?
Answer: Its AC50 is at most 1000 nM.

Question: What about the AC50 [2] of the same molecule?
Answer: The AC50 was under 300 nM.

Question: What about the AC50 [3] of the same molecule?
Answer: The AC50 was under 300 nM.

Question: And the AC50 [4]?
Answer: The AC50 was under 300 nM.

Question: Which AC50 [5] does the source give for `Cc1c2c(=O)n(Cc3ccc4[nH]ncc4c3)ncc2c2sc(Cc3ccccn3)cn12` [Cpd 18] here?
Answer: Its AC50 is at most 1000 nM.

Question: And the AC50 [2]?
Answer: The AC50 was under 300 nM.

Question: What about the AC50 [3] of the same molecule?
Answer: Its AC50 is under 300 nM.

Question: And the AC50 [4]?
Answer: Its AC50 is under 300 nM.

Question: Which results are given for `Cc1c2c(=O)n(Cc3cccc(C#N)c3)ncc2c2sc(Cc3ncco3)cn12` [Cpd 19]?
Answer: AC50 [5]: > 1000 nM; AC50 [2]: < 300 nM; AC50 [3]: > 800 nM; AC50 [4]: 301 to 800 nM

Question: How did the AC50 [5] turn out when `Cc1c2c(=O)n(Cc3cscn3)ncc2c2sc(Cc3cccc4c[nH]nc34)cn12` [Cpd 20] was run?
Answer: Its AC50 is at most 1000 nM.

Question: And the AC50 [2]?
Answer: Its AC50 is under 300 nM.

Question: And the AC50 [3]?
Answer: Its AC50 is under 300 nM.

Question: What about the AC50 [4] of the same molecule?
Answer: Its AC50 is under 300 nM.

Question: For `Cc1cn2c(C)c3c(=O)n(Cc4ccn(C)n4)ncc3c2s1` [Cpd 21], which AC50 [5] is on record?
Answer: Its AC50 is at most 1000 nM.

Question: And the AC50 [2]?
Answer: Its AC50 is under 300 nM.

Question: And the AC50 [3]?
Answer: Its AC50 is under 300 nM.

Question: And the AC50 [4]?
Answer: The AC50 was under 300 nM.
